Data from patent US4900730A, “Preparation which promotes the absorption of peptides” (priority 1981, dated 1990).
Each block holds one molecule with its values, some of them ahead of it.

Experiment: Rectal circulation: Cephalothin disappeared by absorption (Examples 10-14, 16-18)
Method: The experiments were conducted similarly as in Example 1. […] Each sample was diluted and the quantity of Cephalothin disappeared was determined by UV-spectrophotometer of high-speed liquid chromatography.

[1] = Table 5, promoter 0.1% W/V, 0.1% W/V Cephalothin.Na, four-fold tonic, one hour
[2] = Table 11, promoter 0.5% W/V, Example 10 repeated, four-fold tonic
[3] = Table 11, promoter 0.5% W/V, Example 10 repeated, isotonic
[4] = Table 4, promoter 0.1% W/V, 0.1% W/V Cephalothin.Na, four-fold tonic, after one hour
[5] = Table 4, promoter 0.1% W/V, 0.1% W/V Cephalothin.Na, isotonic, after one hour
[6] = Table 4, promoter 0.1% W/V, 0.1% W/V Cephalothin.Na, two-fold tonic, after one hour

Cephalothin disappeared by absorption, Osmotic pressure X 1 (rat, in vivo): 5.8 percents | Cephalothin disappeared by absorption, Osmotic pressure X 2 (rat, in vivo): 10.5 percents | Cephalothin disappeared by absorption, Osmotic pressure X 4 (rat, in vivo): 16.1 percents
SMILES: O=C[C@H](O)[C@@H](O)[C@@H](O)[C@H](O)C(=O)O [Galactronic acid, galacturonic acid]

Cephalothin disappeared by absorption, Osmotic pressure (%) X 1 (rat, in vivo): 7.5% | Cephalothin disappeared by absorption, Osmotic pressure (%) X 2 (rat, in vivo): 13.7% | Cephalothin disappeared by absorption, Osmotic pressure (%) X 4 (rat, in vivo): 21.6%
SMILES: O=C(O)CN(CC(=O)O)CC(O)CN(CC(=O)O)CC(=O)O [DTPA-OH, diaminopropanoltetraacetic acid]

Cephalothin disappeared by absorption, Osmotic pressure X 1 (rat, in vivo): 7.1 percents | Cephalothin disappeared by absorption, Osmotic pressure X 2 (rat, in vivo): 11.8 percents | Cephalothin disappeared by absorption, Osmotic pressure X 4 (rat, in vivo): 17.0 percents
SMILES: NCCCCCC(=O)O [ε-aminocaproic acid]

Cephalothin disappeared by absorption, Osmotic pressure X 1 (rat, in vivo): 5.3 percents | Cephalothin disappeared by absorption, Osmotic pressure X 2 (rat, in vivo): 9.0 percents | Cephalothin disappeared by absorption, Osmotic pressure X 4 (rat, in vivo): 14.6 percents
SMILES: NC(CS(=O)(=O)O)C(=O)O (racemic) [DL-cysteic acid]

SMILES: O=CC(=O)[O-].[Na+] [Sodium glyoxalate, sodium glyoxalate]
Cephalothin disappeared by absorption, Osmotic pressure (%) X 4 [1]: 13.1% | Cephalothin disappeared by absorption, Osmotic pressure (%) X 1 (Table 5, promoter 0.1% W/V, 0.1% W/V Cephalothin.Na, isotonic, one hour): 4.9%

Cephalothin disappeared by absorption, Osmotic pressure X 1 (rat, in vivo): 4.1 percents | Cephalothin disappeared by absorption, Osmotic pressure X 2 (rat, in vivo): 7.5 percents | Cephalothin disappeared by absorption, Osmotic pressure X 4 (rat, in vivo): 13.3 percents
SMILES: O=P(O)(O)OC[C@H]1O[C@](O)(COP(=O)(O)O)[C@@H](O)[C@@H]1O [Fructose-1,6-diphosphoric acid]

Cephalothin disappeared by absorption, Osmotic pressure X 1 (rat, in vivo): 6.6 percents | Cephalothin disappeared by absorption, Osmotic pressure X 4 (rat, in vivo): 15.6 percents
SMILES: NC(Cc1ccccc1)C(=O)O (racemic) [DL-phenylalanine]

Cephalothin.Na disappeared by absorption, Osmotic pressure X 1 (rat, in vivo): 7.1 percents | Cephalothin.Na disappeared by absorption, Osmotic pressure X 4 (rat, in vivo): 18.9 percents
SMILES: O=C([O-])c1ccccc1C(=O)[O-].[Na+].[Na+] [Sodium phthalate, sodium phthalate]

Cephalothin disappeared by absorption, Osmotic pressure X 1 (rat, in vivo): 11.0 percents | Cephalothin disappeared by absorption, Osmotic pressure X 4 (rat, in vivo): 30.4 percents
SMILES: CCC(NC(=O)CN)C(=O)O (racemic) [Glycyl-DL-aminobutyric acid, glycyl-DL-aminobutyric acid]

Cephalothin disappeared by absorption, Osmotic pressure X 1 (rat, in vivo): 5.5 percents | Cephalothin disappeared by absorption, Osmotic pressure X 2 (rat, in vivo): 11.1 percents | Cephalothin disappeared by absorption, Osmotic pressure X 4 (rat, in vivo): 16.4 percents
SMILES: O=C[C@H](O)[C@@H](O)[C@H](O)[C@H](O)C(=O)O [Glucronic acid, glucuronic acid]

Cephalothin disappeared by absorption, Osmotic pressure (%) X 1 (rat, in vivo): 8.1% | Cephalothin disappeared by absorption, Osmotic pressure (%) X 2 (rat, in vivo): 15.0% | Cephalothin disappeared by absorption, Osmotic pressure (%) X 4 (rat, in vivo): 32.3%
SMILES: O=C(O)CN(CC(=O)O)C1CCCCC1N(CC(=O)O)CC(=O)O (stereo not drawn) [CyDTA, trans-cyclohexanediaminetetraacetic acid]

Cephalothin disappeared by absorption, Osmotic pressure (%) X 1 (rat, in vivo): 11.2% | Cephalothin disappeared by absorption, Osmotic pressure (%) X 2 (rat, in vivo): 18.3% | Cephalothin disappeared by absorption, Osmotic pressure (%) X 4 (rat, in vivo): 30.9%
SMILES: CCC(=O)C(=O)O [α-ketobutyric acid]

SMILES: CC(=O)CC(=O)Cc1ccccc1 [3-Phenylacetyl acetone, 3-phenylacetyl acetone]
Cephalothin disappeared by absorption, Osmotic pressure X 4 (Table 10, diketo-compounds, Example 10 repeated, four-fold tonic): 22.2 percents | Cephalothin disappeared by absorption, Osmotic pressure X 1 (Table 10, diketo-compounds, Example 10 repeated, isotonic): 9.1 percents | Cephalothin disappeared by absorption, Osmotic pressure X 2 (Table 10, diketo-compounds, Example 10 repeated, two-fold tonic): 16.3 percents

SMILES: O=C(O)[C@@H]1C[C@@H](O)CN1 (racemic) [DL-hydroxyproline]
Cephalothin disappeared by absorption, Osmotic pressure X 4 [2]: 12.9 percents | Cephalothin disappeared by absorption, Osmotic pressure X 1 [3]: 5.5 percents

Cephalothin disappeared by absorption, Osmotic pressure (%) X 1 (rat, in vivo): 12.3% | Cephalothin disappeared by absorption, Osmotic pressure (%) X 2 (rat, in vivo): 24.2% | Cephalothin disappeared by absorption, Osmotic pressure (%) X 4 (rat, in vivo): 36.9%
SMILES: CCC(C(=O)O)C(=O)O [Ethylmalonic acid, ethylmalonic acid]

Cephalothin disappeared by absorption, Osmotic pressure X 1 (rat, in vivo): 10.9 percents | Cephalothin disappeared by absorption, Osmotic pressure X 4 (rat, in vivo): 25.5 percents
SMILES: CN(C)[C@@H](Cc1ccccc1)C(=O)O [N--dimethylphenylalanine, N-dimethylphenylalanine]

SMILES: O=C(O)/C=C(\CC(=O)O)C(=O)O [Trans-aconitic acid, trans-aconitic acid]
Cephalothin disappeared by absorption, Osmotic pressure (%) X 4 [4]: 27.8% | Cephalothin disappeared by absorption, Osmotic pressure (%) X 1 [5]: 10.5% | Cephalothin disappeared by absorption, Osmotic pressure (%) X 2 [6]: 18.6%

SMILES: NCC(=O)O [DL-glycine]
Cephalothin disappeared by absorption, Osmotic pressure X 4 [2]: 14.0 percents | Cephalothin disappeared by absorption, Osmotic pressure X 1 [3]: 6.9 percents | Cephalothin disappeared by absorption, Osmotic pressure X 2 (Table 11, promoter 0.5% W/V, Example 10 repeated, two-fold tonic): 9.4 percents

Cephalothin disappeared by absorption, Osmotic pressure (%) X 1 (rat, in vivo): 7.1% | Cephalothin disappeared by absorption, Osmotic pressure (%) X 2 (rat, in vivo): 14.2% | Cephalothin disappeared by absorption, Osmotic pressure (%) X 4 (rat, in vivo): 17.0%
SMILES: O=C(O)CNCC(=O)O [Iminodiacetic acid, iminodiacetic acid]

Cephalothin disappeared by absorption, Osmotic pressure (%) X 1 [5]: 9.4%
SMILES: O=C(O)CN(CCN(CC(=O)O)CC(=O)O)CC(=O)O [EDTA.2Na, ethylenediaminetetraacetic acid]

Cephalothin disappeared by absorption, Osmotic pressure (%) X 4 [1]: 25.6%
SMILES: O=C(O)CCC(=O)C(=O)O [α-ketoglutaric acid]

Cephalothin disappeared by absorption, Osmotic pressure X 4 (rat, in vivo): 29.3 percents
SMILES: NC(C(=O)O)c1ccccc1 (racemic) [DL-phenylglycine]

Cephalothin disappeared by absorption, Osmotic pressure (%) X 1 (rat, in vivo): 9.8% | Cephalothin disappeared by absorption, Osmotic pressure (%) X 2 (rat, in vivo): 14.7% | Cephalothin disappeared by absorption, Osmotic pressure (%) X 4 (rat, in vivo): 23.2%
SMILES: CCCC(=O)C(=O)O [α-ketovaleric acid]

Cephalothin disappeared by absorption, Osmotic pressure X 4 (Table 6, promoter 0.1 W/V %, 0.1 W/V % Cephalothin.Na, four-fold tonic, one hour): 18.8 percents | Cephalothin disappeared by absorption, Osmotic pressure X 1 (Table 6, promoter 0.1 W/V %, 0.1 W/V % Cephalothin.Na, isotonic, one hour): 7.2 percents | Cephalothin disappeared by absorption, Osmotic pressure X 2 (Table 6, promoter 0.1 W/V %, 0.1 W/V % Cephalothin.Na, two-fold tonic, one hour): 12.3 percents
SMILES: O=C(O)CC(O)C(=O)O (stereo not shown) [Malic acid, malic acid]

Cephalothin disappeared by absorption, Osmotic pressure X 4 (Table 11, promoter 0.1% W/V, Example 10 repeated, four-fold tonic): 21.4 percents | Cephalothin disappeared by absorption, Osmotic pressure X 1 (Table 11, promoter 0.1% W/V, Example 10 repeated, isotonic): 11.9 percents
SMILES: COC(=O)C(N)CCC(=O)O (racemic) [α-methyl DL-glutamate]

Cephalothin disappeared by absorption, Osmotic pressure X 1 (rat, in vivo): 8.6 percents | Cephalothin disappeared by absorption, Osmotic pressure X 4 (rat, in vivo): 19.0 percents
SMILES: NCC(=O)NC(CC(=O)O)C(=O)O (racemic) [Glycyl-DL-aspartic acid, glycyl-DL-aspartic acid]

Cephalothin disappeared by absorption, Osmotic pressure (%) X 1 (rat, in vivo): 11.9% | Cephalothin disappeared by absorption, Osmotic pressure (%) X 2 (rat, in vivo): 21.1% | Cephalothin disappeared by absorption, Osmotic pressure (%) X 4 (rat, in vivo): 34.3%
SMILES: CC(=O)CCC(=O)O [Levulinic acid, levulinic acid]

Cephalothin disappeared by absorption, Osmotic pressure (%) X 1 (rat, in vivo): 5.1% | Cephalothin disappeared by absorption, Osmotic pressure (%) X 2 (rat, in vivo): 7.8% | Cephalothin disappeared by absorption, Osmotic pressure (%) X 4 (rat, in vivo): 15.0%
SMILES: O=C(O)CCCCCC(=O)O [Pimellic acid, pimellic acid]

SMILES: O=C(O)CCCC(=O)O [Glutaric acid, glutaric acid]
Cephalothin disappeared by absorption, Osmotic pressure (%) X 4 [4]: 15.2% | Cephalothin disappeared by absorption, Osmotic pressure (%) X 1 [5]: 5.7% | Cephalothin disappeared by absorption, Osmotic pressure (%) X 2 [6]: 9.3%

Cephalothin disappeared by absorption, Osmotic pressure (%) X 4 [4]: 18.3% | Cephalothin disappeared by absorption, Osmotic pressure (%) X 1 [5]: 6.6%
SMILES: O=C([O-])C(=O)[O-].[Na+].[Na+] [Sodium oxalate, sodium oxalate]

Cephalothin disappeared by absorption, Osmotic pressure (%) X 1 (rat, in vivo): 7.0% | Cephalothin disappeared by absorption, Osmotic pressure (%) X 2 (rat, in vivo): 11.6% | Cephalothin disappeared by absorption, Osmotic pressure (%) X 4 (rat, in vivo): 23.1%
SMILES: CC(=O)C(=O)[O-].[Na+] [Sodium pyruvate, sodium pyruvate]

Cephalothin disappeared by absorption, Osmotic pressure X 1 (rat, in vivo): 12.0 percents | Cephalothin disappeared by absorption, Osmotic pressure X 2 (rat, in vivo): 22.3 percents | Cephalothin disappeared by absorption, Osmotic pressure X 4 (rat, in vivo): 30.8 percents
SMILES: O=C(O)CNc1ccccc1 [N--phenylglycine, N-phenylglycine]

Cephalothin disappeared by absorption, Osmotic pressure X 1 (rat, in vivo): 13.1 percents | Cephalothin disappeared by absorption, Osmotic pressure X 2 (rat, in vivo): 24.6 percents | Cephalothin disappeared by absorption, Osmotic pressure X 4 (rat, in vivo): 31.4 percents
SMILES: N[C@@H](CC(C(=O)O)C(=O)O)C(=O)O [γ-carboxyglutamic acid]

Cephalothin.Na disappeared by absorption, Osmotic pressure X 1 (rat, in vivo): 9.5 percents | Cephalothin.Na disappeared by absorption, Osmotic pressure X 2 (rat, in vivo): 15.3 percents | Cephalothin.Na disappeared by absorption, Osmotic pressure X 4 (rat, in vivo): 22.9 percents
SMILES: O=C(O)c1c(O)cccc1O [2,6-dihydroxybenzoic acid]

Cephalothin disappeared by absorption, Osmotic pressure X 1 (rat, in vivo): 9.8 percents | Cephalothin disappeared by absorption, Osmotic pressure X 4 (rat, in vivo): 22.0 percents
SMILES: O=S(=O)(O)c1cc(O)c(O)c(S(=O)(=O)O)c1 [DHBDS, 1,2-dihydroxybenzene-3,5-disulfonic acid]

Cephalothin disappeared by absorption, Osmotic pressure (%) X 1 (rat, in vivo): 8.4% | Cephalothin disappeared by absorption, Osmotic pressure (%) X 2 (rat, in vivo): 12.7% | Cephalothin disappeared by absorption, Osmotic pressure (%) X 4 (rat, in vivo): 19.6%
SMILES: O=C([O-])C(=O)C(=O)[O-].[Na+].[Na+] [Sodium ketomalonate, sodium ketomalonate]

Cephalothin disappeared by absorption, Osmotic pressure (%) X 1 (rat, in vivo): 8.2% | Cephalothin disappeared by absorption, Osmotic pressure (%) X 2 (rat, in vivo): 13.1% | Cephalothin disappeared by absorption, Osmotic pressure (%) X 4 (rat, in vivo): 24.0%
SMILES: O=C(O)CCC(=O)O [Succinic acid]

Cephalothin disappeared by absorption, Osmotic pressure X 1 (rat, in vivo): 7.6 percents | Cephalothin disappeared by absorption, Osmotic pressure X 4 (rat, in vivo): 20.0 percents
SMILES: O=P(O)(O)CN(CCN(CP(=O)(O)O)CP(=O)(O)O)CP(=O)(O)O [EDTPO, ethylenediaminetetrakis(methylenephosphonicacid)]
